Data reported in patent publication US20230331679A1, “NAPHTHALENE MONOIMIDE COMPOUNDS AND METHODS THEREOF” (JAWAHARLAL NEHRU CENTRE FOR ADVANCED SCIENTIFIC RESEARCH, priority 2020, published 2023).

How the values were obtained:
[1] = Octanol/water partition coefficient (LogP); assay type: physicochemical
Description: Pharmacokinetics of TGR63 in wild-type (WT) mice was performed to assess its in vivo efficacy. The lethal dose 50 (LD50) of TGR63 was determined in WT mice through intraperitoneal (IP) injection following the Organisation for Economic Cooperation and Development (OECD) guidelines. […] FIG. 7A illustrates the calculation of lethal dose 50% (LD50) of TGR63 through intraperitoneal administration and is represented as table of experimental details and the final observation was done on 14th day. FIG. 7B illustrates the mortality (%) plotted against TGR63 concentration and calculation of LD50. Twenty-five WT mice were segregated in five different groups (G1-5, N= 5 per group) and administered with varying doses of TGR63 (1.7, 5.5, 17.5 56.0 and 179.0 mg/kg body weight, respectively) through IP injection and their survival was monitored for 14 days. The serum stability and blood-brain barrier (BBB) crossing ability of TGR63 were assessed through matrix-assisted laser desorption ionization (MALDI) mass spectrometry analysis of blood and brain samples of vehicle and TGR63 treated mice. TGR63 and vehicle were administrated in WT mice and sacrificed after 1 and 24 h to collect the blood for MALDI mass analysis FIG. 8 depicts the MALDI mass analysis of vehicle (FIG. 8A) and TGR63 treated mice blood serum after 1 h (FIG. 8B) and 24 h (FIG. 8C) of administration. The presence of TGR63 in blood was confirmed from the mass analysis even after 24 h. […] TGR63 was incubated in PBS (10 mM, pH= 7.4) and blood serum in WT mice for different time intervals (0.5, 1, 2 and 6 h) at 37° C. to evaluate the serum stability under in vitro conditions. […] FIG. 9 depicts the Serum stability of TGR63 under in vitro conditions. TGR63 was incubated in PBS (10 mM, pH= 7.4) and blood serum (WT mouse) for different time (0.5, 1, 2 and 6 h) at 37° C. […] The partition coefficient (P), a valuable physical property was calculated to predict the BBB permeability. […] FIG. 10 depicts the calculation of LogP. […] The calculated positive logP value predicts the possible BBB crossing ability for TGR63. […]

[2] = biological target: T1, Full length tau (Homo sapiens, UniProt P10636); assay: ThT fluorescence assay, inhibition of tau aggregation; assay type: biochemical; conditions: for ThT fluorescence signal compared with untreated controls (100%): tau 5 µM, heparin 1.25 µM, 72 h at 37° C.
T1 construct: Full length tau (5 µM) was incubated with TGR63
T1 sequence (P10636 1-441 isoform P10636-8): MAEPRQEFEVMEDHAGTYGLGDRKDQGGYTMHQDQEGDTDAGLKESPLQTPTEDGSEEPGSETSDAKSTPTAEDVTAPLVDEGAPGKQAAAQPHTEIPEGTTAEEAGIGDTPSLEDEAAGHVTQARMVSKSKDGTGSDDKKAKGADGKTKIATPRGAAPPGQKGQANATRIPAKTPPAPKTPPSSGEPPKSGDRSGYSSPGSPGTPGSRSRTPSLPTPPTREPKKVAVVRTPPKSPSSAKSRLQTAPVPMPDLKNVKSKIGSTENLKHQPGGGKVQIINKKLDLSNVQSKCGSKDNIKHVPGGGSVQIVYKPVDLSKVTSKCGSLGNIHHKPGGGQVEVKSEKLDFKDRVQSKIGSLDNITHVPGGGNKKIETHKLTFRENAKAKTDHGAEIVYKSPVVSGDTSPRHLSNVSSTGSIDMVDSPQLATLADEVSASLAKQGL
Excerpt: Tau is a microtubule-associated proteins that interacts with tubulin and stimulates its assembly into microtubules. The extent of phosphorylation regulates the activity of tau protein and the hyperphosphorylation diminishes its physiological function leading to several neuronal disorders like AD and tauopathies. The self-aggregation of hyperphosphorylated tau form intracellular neurofibrillary tangles (NFTs) and paired helical filaments (PHFs) that impairs the axonal functions and degenerates neuronal cells. Considering the prominent role of tau in AD pathology, the self-aggregation and deposition of hyperphosphorylated tau became a potential target to tackle AD and related tauopathies. Effect of TGR63 on tau aggregation was assessed. Full length tau (5 µM) was incubated with TGR63 (5 and 25 µM) for 72 h at 37° C. in the presence of aggregation inducer (heparin; 1.25 µM). The extent of aggregation of incubated samples were assessed by ThT fluorescence (λex= 442 nm and λem=482 nm) assay. FIG. 25 depicts the inhibition of tau (5 µM) aggregation in presence of TGR63. As expected, the ThT fluorescence signal was increased by ~15 folds with compare to only ThT, which confirmed the formation of pathogenic tau aggregates.

SMILES: CN(C)c1ccc(C#Cc2ccc3c4c(cccc24)C(=O)N(CC[N+](C)(C)C)C3=O)cc1 [TGR63, 2-(6-((4-(dimethylamino)phenyl)ethynyl)-1,3-dioxo-1H-benzo[de]isoquinolin-2(3H)-yl)-N,N,N-trimethylethan-1-aminium]
- logP ([1]; calculated from octanol and water layer concentrations): 0.1
- concentration in octanol layer ([1]; octanol/water partition): 21.82 µM
- concentration in water layer ([1]; octanol/water partition): 18.18 µM
- ThT fluorescence signal compared with untreated controls (100%) ([2]; TGR63 5 µM): ~ 72%
- ThT fluorescence signal compared with untreated controls (100%) ([2]; TGR63 25 µM): ~52%
- reduction of tau aggregates ([2]; tau:TGR63 1:1): ~ 28%
- reduction of tau aggregates ([2]; tau:TGR63 1:5): ~48%
